pIC50: −log10 of the molar value.
Columns and labels:
[1] = molecular target: T1, Ba/F3 cells co-expressing full length rTrkA and mNGF (Rattus norvegicus, UniProt P35739); experiment: Ba/F3 cell proliferation, BaF3/TRKA-NGF; format: cell-based; conditions: inhibition of proliferation, 48 hours, Bright-Glo luminescence
T1 construct: co-expressing full length rTrkA and mNGF; expressed in transfected cells; host or cells: Ba/F3 murine hematopoietic progenitor cells

[2] = molecular target: T2, Ba/F3 cells transformed with human Tel-TrkA (Homo sapiens, UniProt P04629); experiment: Ba/F3 cell proliferation, Ba/F3 Tel-TrkA; format: cell-based; conditions: inhibition of proliferation, 48 hours, Bright-Glo luminescence; read-out: Ba/F3Tel-TrkA
T2 construct: expressed in transfected cells; host or cells: luciferase expressing Ba/F3 murine hematopoietic progenitor cell line; the other entry of the earlier key: ETV6 (P41212, Transcription factor ETV6)
Method: (§1) Test compounds were dissolved in DMSO (10 mM) and transferred into 1.4 mL flat bottom or V-shaped Matrix tubes carrying a unique 2D matrix chip by individual compound hubs. The numbers of these chips were distinctively linked to the individual compound identification numbers. The stock solutions were stored at −20° C. if not used immediately. For the test procedure the vials were defrosted and identified by a scanner whereby a working sheet is generated that guides the subsequent working steps.
(§2) Compound dilutions were made in 384 well plates. This format enabled the assay of maximally 28 individual test compounds at 11 concentrations (single points) including 2 reference compounds. The dilution protocol included the production of pre-dilution plates, master plates and assay plates: • Compound plates: 30 μL of individual compound (10 mM) DMSO solution including reference compound were transferred into columns 1 and 13 of a 384 well plate. 20 μL of DMSO were added to the rest of the wells and the compounds were serially diluted (1:3) by transferring 10 μL from a well in column 1 or 13 to the next well in column 2 or 14 respectively and successively with the help of a Minitrack robot. • Assay plates: Identical assay plates were then prepared by adding 50 nL each of compound dilutions of the compound plates into 384-well “assay plates”. In the following the compounds were mixed with 50 μL of assays components (cells or enzyme) and tested for their inhibitory activity.
(§3) The cell line used is the luciferase expressing Ba/F3 murine hematopoietic progenitor cell line transformed with human Tel-TrkA, Tel-TrkB or Tel-TrkC cDNAs (Ba/F3 EN A/B/C). These cells maintained in RPMI/10% fetal bovine serum (RPMI/FCS) supplemented with penicillin 50 mg/mL, streptomycin 50 mg/mL and L-glutamine 200 mM. Untransformed Ba/F3 cells were similarly maintained with the addition 5 ng/ml of murine recombinant IL3. 50 μl of a Ba/F3 or Ba/F3 EN A/B/C cell suspension were plated in Greiner 384 well microplates (white)) at a density of 2000 cells per well. 50 nl of serially diluted test compound (10-0.0001 mM in DMSO solution) is added to each well. The cells were incubated for 48 hours at 37° C., 5% CO2. 25 μl of Bright Glo® (Promega) luciferase substrate is added to each well. The emited luminiscence is quantified using ViewLux (PerkinElmer). IC50 values were calculated by linear regression analysis of the percentage inhibition of each compound at 11 concentrations.
In certain examples compounds of Formula (I) have IC50 values from 0.1 nM 1 μM. In other examples, compounds of Formula (I) have IC50 values from 0.0001 μM to 0.8 μM. In other examples, compounds of Formula (I) have IC50 values from 0.0001 μM to 0.6 μM. In other examples, compounds of Formula (I) have IC50 values from 0.0001 μM to 0.4 μM. In other examples, compounds of Formula (I) have IC50 values from 0.0001 μM to 0.2 μM. In other examples, compounds of Formula (I) have IC50 values from 0.0001 μM to 0.1 μM. In other examples, compounds of Formula (I) have IC50 values from 0.0001 μM to 0.08 μM. In other examples, compounds of Formula (I) have IC50 values from 0.0001 μM to 0.06 μM. In other examples, compounds of Formula (I) have IC50 values from 0.0001 μM to 0.04 μM. In other examples, compounds of Formula (I) have IC50 values from 0.0001 μM to 0.02 μM. In other examples, compounds of Formula (I) have IC50 values from 0.0001 μM to 0.01 μM. In other examples, compounds of Formula (I) have IC50 values from 0.01 μM to 1 μM.

[3] = tested on: parental (untransformed) Ba/F3 cells; experiment: Ba/F3 cell proliferation, BAF3/WT (parental, IL3); format: cell-based, murine; conditions: Mus musculus, inhibition of proliferation of parental cells with IL3, 48 hours, Bright-Glo luminescence
Method: as §1, §2
Compounds were tested for their ability to inhibit the proliferation of wt Ba/F3 cells and Ba/F3 cells transformed with constitutively expressed luciferase reporter and BCR-ABL or Tel-FMS or other Tel fusion kinases (EGFR, JAK2, ALK, BMX, FGFR3, FGFR4, FGR2, FLT1, FLT3, IGF1R, INSR, KDR, KIT, LCK, LYN, MEK, MET, PDGFRα, PDGFRβ, RET, RON, ROS, SRC, SYK, TIE and TYRO) or BRafV600E. Parental Ba/F3 cells were maintained in media containing recombinant mouse IL3 and the kinase transformed Ba/F3 cells were maintained in media without IL-3. 7.5 nl of compounds were spotted to each well of 1536-well assay plates by Liquid handling System Echo 555 (Labcyte). 700 cells were then plated into each well of the assay plates in 7 uL culture media per well and compounds were tested at 0.17 nM to 10 uM in 3-fold serial dilutions. The cells were then incubated for 48 hours at 37° C. 3 uL of Bright-Glo® (Promega) was added to each well and the plates were read using ViewLux (PerkinElmer).
as §3, with “concentrations. […]” for “concentrations.”

T2 sequence (P04629 510-796 limits assumed): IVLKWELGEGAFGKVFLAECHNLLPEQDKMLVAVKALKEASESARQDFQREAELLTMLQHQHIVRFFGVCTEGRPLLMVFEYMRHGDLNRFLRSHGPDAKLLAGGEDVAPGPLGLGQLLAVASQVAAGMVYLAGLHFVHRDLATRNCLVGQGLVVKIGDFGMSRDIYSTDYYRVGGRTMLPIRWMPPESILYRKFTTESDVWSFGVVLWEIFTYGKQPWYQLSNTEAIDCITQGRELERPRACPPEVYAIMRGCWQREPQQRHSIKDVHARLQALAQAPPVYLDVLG
T1 sequence (P35739 33-799): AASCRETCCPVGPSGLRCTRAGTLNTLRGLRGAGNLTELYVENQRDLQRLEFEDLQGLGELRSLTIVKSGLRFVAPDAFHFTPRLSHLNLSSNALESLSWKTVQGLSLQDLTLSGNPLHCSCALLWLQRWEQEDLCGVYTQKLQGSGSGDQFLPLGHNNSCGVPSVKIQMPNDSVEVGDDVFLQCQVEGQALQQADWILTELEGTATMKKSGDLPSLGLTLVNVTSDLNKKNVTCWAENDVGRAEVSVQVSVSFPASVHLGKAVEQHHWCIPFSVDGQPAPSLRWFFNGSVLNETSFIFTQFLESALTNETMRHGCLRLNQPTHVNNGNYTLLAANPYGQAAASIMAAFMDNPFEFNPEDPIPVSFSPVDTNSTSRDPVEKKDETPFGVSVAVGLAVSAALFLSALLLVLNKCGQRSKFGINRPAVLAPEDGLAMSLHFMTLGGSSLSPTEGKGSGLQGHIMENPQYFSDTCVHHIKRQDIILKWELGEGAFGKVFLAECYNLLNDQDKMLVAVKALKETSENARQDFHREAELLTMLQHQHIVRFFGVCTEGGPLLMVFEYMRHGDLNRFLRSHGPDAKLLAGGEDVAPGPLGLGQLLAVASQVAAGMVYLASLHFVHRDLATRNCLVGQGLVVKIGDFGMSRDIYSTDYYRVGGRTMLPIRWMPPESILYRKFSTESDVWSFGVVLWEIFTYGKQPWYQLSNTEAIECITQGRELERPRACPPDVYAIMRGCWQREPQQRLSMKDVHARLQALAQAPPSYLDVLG
T1 sequence (P01139 122-241 partner): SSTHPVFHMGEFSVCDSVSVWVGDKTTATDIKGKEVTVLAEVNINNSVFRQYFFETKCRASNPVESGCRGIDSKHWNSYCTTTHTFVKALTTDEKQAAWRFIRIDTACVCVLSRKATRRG

Row | Structure (SMILES) | pIC50 [1] | pIC50 [2] | pIC50 [3] | melting point
1 | N#Cc1cc(F)cc([C@H]2C[C@H](F)CN2c2ccn3ncc(C(N)=O)c3c2)c1 [Example X-10, 5-((2R,4S)-2-(3-cyano-5-fluorophenyl)-4-fluoropyrrolidin-1-yl)pyrazolo[1,5-a]pyridine-3-carboxamide] | 8.10 | 8.30 | < 5.00 | 140 °C (dec.)
2 | O=C(Nc1cnn2ccc(N3C[C@@H](F)C[C@@H]3c3cccc(F)c3)cc12)OCc1ccccc1 [Example X-21, benzyl (5-((2R,4S)-4-fluoro-2-(3-fluorophenyl)pyrrolidin-1-yl)pyrazolo[1,5-a]pyridin-3-yl)carbamate] | 6.75 | 6.75 | < 5.00 | 
3 | CC(C)NC(=O)c1ccc(F)cc1C1CC(F)(F)CN1c1ccn2ncc(C(N)=O)c2c1 (stereo not shown) [Example X-18, 5-(4,4-difluoro-2-{5-fluoro-2-[(propan-2-yl)carbamoyl]phenyl}pyrrolidin-1-yl)pyrazolo[1,5-a]pyridine-3-carboxamide] | 8.15 | 8.15 | < 5.00 | 
4 | NC(=O)Nc1cnn2ccc(N3C[C@@H](F)C[C@@H]3c3cccc(F)c3)cc12 [Example X-23, 1-(5-((2R,4S)-4-fluoro-2-(3-fluorophenyl)pyrrolidin-1-yl)pyrazolo[1,5-a]pyridin-3-yl)urea] | 6.75 | 6.81 | < 5.00 | 
5 | N#Cc1cc(F)cc([C@@H]2C[C@H](F)CN2c2ccn3ncc(C(N)=O)c3c2)c1 [Example X-27] | < 5.00 | < 5.00 | < 5.00 | 
6 | CCOC(=O)c1cnn2ccc(N3CC(F)(F)C[C@@H]3c3cc(F)cc(C#N)c3)cc12 [Example X-8, (R)-ethyl 5-(2-(3-cyano-5-fluorophenyl)-4,4-difluoropyrrolidin-1-yl)pyrazolo[1,5-a]pyridine-3-carboxylate] | 7.72 | 7.77 | < 5.00 | 
7 | O=C(O)c1cnn2ccc(N3CC(F)(F)C[C@@H]3c3cccc(F)c3)cc12 [Example X-4, (R)-5-(4,4-difluoro-2-(3-fluorophenyl)pyrrolidin-1-yl)pyrazolo[1,5-a]pyridine-3-carboxylic acid] | 6.18 | 5.77 | < 5.00 | 
8 | CN1CCN(c2ccn3ncc(C(N)=O)c3c2)C(c2ccccc2)C1 (stereo not shown) [Example X-29] | < 5.00 | < 5.00 | < 5.00 | 
9 | CCOC(=O)c1cnn2ccc(N3C[C@@H](C(N)=O)C[C@@H]3c3cccc(F)c3)cc12 [Example X-20, ethyl 5-((2R,4S)-4-carbamoyl-2-(3-fluorophenyl)pyrrolidin-1-yl)pyrazolo[1,5-a]pyridine-3-carboxylate] | 8.70 | 8.70 | < 5.00 | 
10 | CCOC(=O)c1cnn2ccc(N3C[C@@H](F)C[C@@H]3c3cc(F)cc(C#N)c3)cc12 [Example X-7, ethyl 5-((2R,4S)-2-(3-cyano-5-fluorophenyl)-4-fluoropyrrolidin-1-yl)pyrazolo[1,5-a]pyridine-3-carboxylate] | 8.70 | 9.00 | 5.35 | 
11 | O=C(O)c1cnn2ccc(N3C[C@@H](F)C[C@@H]3c3cccc(F)c3)cc12 [Example X-3, 5-((2R,4S)-4-fluoro-2-(3-fluorophenyl)pyrrolidin-1-yl)pyrazolo[1,5-a]pyridine-3-carboxylic acid] | 6.96 | 6.83 | < 5.00 | 
